Earlier results on one compound are cited in patent publication US20090012284A1, “Process for the Preparation of a Piroxicam: Betacyclodextrin Inclusion Compound” (Chiesi Farmaceutici S.p.A., priority 2004, published 2009).

For the data set the following is noted: pH 5, 37° C.

On to `CN1C(C(=O)Nc2ccccn2)=C(O)c2ccccc2S1(=O)=O` [Piroxicam], for which the solubility in water was 0.003%.
